In ChEMBL document CHEMBL3102750 (J Med Chem, 2013):

Experiments:
Format in all cases: functional, cell-based
[1] = target: T1, Muscarinic acetylcholine receptor M5 (Homo sapiens) (UniProt P08912); assay: Negative allosteric modulation of human muscarinic acetylcholine receptor M5 expressed in CHO cells assessed as reduction of acetylcholine-induced calcium mobilization at 10 uM incubated for 150 secs prior to acetylcholine induction by Fluo-4 AM staining-based fluorescence assay relative to control; parameters: scale not given: the % may be the effect or the level left
T1 sequence (whole entry): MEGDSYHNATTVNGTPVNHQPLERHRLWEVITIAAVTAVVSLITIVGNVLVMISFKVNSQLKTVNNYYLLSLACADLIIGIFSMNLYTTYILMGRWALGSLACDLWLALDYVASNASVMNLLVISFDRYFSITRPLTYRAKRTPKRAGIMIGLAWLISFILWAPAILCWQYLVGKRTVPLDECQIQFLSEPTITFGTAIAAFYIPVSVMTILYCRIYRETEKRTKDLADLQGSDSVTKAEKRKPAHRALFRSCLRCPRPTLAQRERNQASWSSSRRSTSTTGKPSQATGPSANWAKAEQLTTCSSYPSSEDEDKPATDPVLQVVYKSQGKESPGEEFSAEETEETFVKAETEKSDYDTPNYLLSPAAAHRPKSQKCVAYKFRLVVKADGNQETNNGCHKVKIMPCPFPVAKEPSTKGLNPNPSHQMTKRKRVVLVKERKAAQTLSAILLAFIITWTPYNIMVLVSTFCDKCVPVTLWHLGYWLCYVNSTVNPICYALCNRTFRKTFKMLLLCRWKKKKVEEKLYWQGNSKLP

[2] = target: T2, Muscarinic acetylcholine receptor M5 (Homo sapiens, UniProt P08912); assay: Negative allosteric modulation of human muscarinic acetylcholine receptor M5 expressed in CHO cells assessed as inhibition of acetylcholine-induced calcium mobilization incubated for 150 secs prior to acetylcholine induction by Fluo-4 AM staining-based fluorescence assay
T2 sequence (P08912 whole entry): T1 sequence (whole entry)

[3] = target: Muscarinic acetylcholine receptor M3 (Homo sapiens, UniProt P20309); assay: Negative allosteric modulation of human muscarinic acetylcholine receptor M3 expressed in CHO cells assessed as inhibition of acetylcholine-induced calcium mobilization incubated for 150 secs prior to acetylcholine induction by Fluo-4 AM staining-based fluorescence assay
[4] = target: T3, Muscarinic acetylcholine receptor M5 (Rattus norvegicus, UniProt P08911); assay: Negative allosteric modulation of rat muscarinic acetylcholine receptor M5 expressed in CHO cells assessed as inhibition of acetylcholine-induced calcium mobilization incubated for 150 secs prior to acetylcholine induction by Fluo-4 AM staining-based fluorescence assay
T3 sequence (P08911 whole entry): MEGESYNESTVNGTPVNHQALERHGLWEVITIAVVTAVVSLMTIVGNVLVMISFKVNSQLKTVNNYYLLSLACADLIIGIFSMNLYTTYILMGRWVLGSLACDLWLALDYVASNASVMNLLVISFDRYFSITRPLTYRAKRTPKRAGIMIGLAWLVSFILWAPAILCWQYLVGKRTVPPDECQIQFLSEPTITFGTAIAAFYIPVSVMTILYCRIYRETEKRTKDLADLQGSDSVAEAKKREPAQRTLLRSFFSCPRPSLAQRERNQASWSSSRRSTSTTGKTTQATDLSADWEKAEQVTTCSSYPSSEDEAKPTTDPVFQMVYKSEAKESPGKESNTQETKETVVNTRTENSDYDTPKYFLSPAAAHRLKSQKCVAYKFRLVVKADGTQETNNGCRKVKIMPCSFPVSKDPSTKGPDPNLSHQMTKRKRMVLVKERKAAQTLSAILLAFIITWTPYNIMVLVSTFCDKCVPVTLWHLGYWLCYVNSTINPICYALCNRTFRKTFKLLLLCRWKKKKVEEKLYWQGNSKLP

[5] = target: T4, Muscarinic acetylcholine receptor M2 (Homo sapiens, UniProt P08172); assay: Negative allosteric modulation of human muscarinic acetylcholine receptor M2 expressed in CHO cells assessed as inhibition of acetylcholine-induced calcium mobilization incubated for 150 secs prior to acetylcholine induction by Fluo-4 AM staining-based fluorescence assay
T4 sequence (P08172 whole entry): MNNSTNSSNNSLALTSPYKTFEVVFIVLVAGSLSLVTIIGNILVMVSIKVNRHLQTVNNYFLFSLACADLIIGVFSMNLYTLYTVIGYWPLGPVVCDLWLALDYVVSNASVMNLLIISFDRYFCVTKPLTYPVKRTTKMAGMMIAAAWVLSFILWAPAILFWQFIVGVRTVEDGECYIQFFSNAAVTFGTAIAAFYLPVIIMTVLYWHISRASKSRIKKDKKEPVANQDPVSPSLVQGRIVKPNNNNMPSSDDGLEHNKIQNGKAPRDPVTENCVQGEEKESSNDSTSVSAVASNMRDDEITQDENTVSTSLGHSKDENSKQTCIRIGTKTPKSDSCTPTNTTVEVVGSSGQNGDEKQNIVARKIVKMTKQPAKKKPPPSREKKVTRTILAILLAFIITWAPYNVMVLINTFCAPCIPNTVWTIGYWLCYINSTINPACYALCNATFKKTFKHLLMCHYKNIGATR

[6] = target: T5, Muscarinic acetylcholine receptor M4 (Homo sapiens, UniProt P08173); assay: Negative allosteric modulation of human muscarinic acetylcholine receptor M4 expressed in CHO cells assessed as inhibition of acetylcholine-induced calcium mobilization incubated for 150 secs prior to acetylcholine induction by Fluo-4 AM staining-based fluorescence assay
T5 sequence (P08173 whole entry): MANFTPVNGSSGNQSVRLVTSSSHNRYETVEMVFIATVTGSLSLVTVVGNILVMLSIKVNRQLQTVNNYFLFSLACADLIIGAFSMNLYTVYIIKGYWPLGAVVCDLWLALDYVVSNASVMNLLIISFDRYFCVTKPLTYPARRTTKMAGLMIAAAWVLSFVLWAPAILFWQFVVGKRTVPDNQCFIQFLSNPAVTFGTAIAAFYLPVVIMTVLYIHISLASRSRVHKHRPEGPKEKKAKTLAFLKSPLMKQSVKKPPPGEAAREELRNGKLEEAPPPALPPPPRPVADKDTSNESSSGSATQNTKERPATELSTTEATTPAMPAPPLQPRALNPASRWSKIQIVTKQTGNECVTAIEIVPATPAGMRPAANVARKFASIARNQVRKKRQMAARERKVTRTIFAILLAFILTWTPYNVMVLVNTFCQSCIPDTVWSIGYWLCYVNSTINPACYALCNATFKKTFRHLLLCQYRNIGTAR

[7] = target: T6, Muscarinic acetylcholine receptor M1 (Homo sapiens, UniProt P11229); assay: Negative allosteric modulation of human muscarinic acetylcholine receptor M1 expressed in CHO cells assessed as inhibition of acetylcholine-induced calcium mobilization incubated for 150 secs prior to acetylcholine induction by Fluo-4 AM staining-based fluorescence assay
T6 sequence (P11229 whole entry): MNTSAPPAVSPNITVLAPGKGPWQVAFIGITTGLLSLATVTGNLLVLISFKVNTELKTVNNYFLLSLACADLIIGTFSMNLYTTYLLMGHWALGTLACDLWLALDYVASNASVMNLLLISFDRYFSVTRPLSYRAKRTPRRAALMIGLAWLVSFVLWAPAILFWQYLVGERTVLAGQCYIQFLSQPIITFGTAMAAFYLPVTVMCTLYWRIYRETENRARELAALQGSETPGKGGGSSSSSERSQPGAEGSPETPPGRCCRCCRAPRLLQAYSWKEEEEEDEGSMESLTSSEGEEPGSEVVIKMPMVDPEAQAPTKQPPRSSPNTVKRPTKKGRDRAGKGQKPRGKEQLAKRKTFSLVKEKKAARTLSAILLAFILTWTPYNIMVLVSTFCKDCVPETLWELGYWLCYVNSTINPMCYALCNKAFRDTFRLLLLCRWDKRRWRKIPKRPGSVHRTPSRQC

Sequence of Muscarinic acetylcholine receptor M3 (P20309 whole entry): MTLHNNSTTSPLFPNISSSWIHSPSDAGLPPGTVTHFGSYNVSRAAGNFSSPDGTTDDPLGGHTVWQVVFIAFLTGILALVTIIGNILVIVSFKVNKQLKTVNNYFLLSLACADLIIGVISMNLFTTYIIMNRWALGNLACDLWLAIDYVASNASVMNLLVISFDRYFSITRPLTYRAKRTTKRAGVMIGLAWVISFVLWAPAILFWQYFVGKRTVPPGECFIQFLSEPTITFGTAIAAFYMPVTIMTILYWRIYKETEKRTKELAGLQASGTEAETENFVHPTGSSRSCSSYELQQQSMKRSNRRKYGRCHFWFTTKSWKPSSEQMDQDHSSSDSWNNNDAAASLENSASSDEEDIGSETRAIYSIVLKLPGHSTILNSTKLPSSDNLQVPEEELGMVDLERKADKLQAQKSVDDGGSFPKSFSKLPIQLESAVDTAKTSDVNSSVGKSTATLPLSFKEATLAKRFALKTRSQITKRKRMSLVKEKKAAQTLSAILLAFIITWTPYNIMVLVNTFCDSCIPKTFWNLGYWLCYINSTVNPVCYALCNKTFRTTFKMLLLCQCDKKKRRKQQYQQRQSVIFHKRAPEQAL

| Compound | Activity [1] | IC50 [2] | also measured |
| --- | --- | --- | --- |
| O=C(c1ccc(C(F)(F)F)cc1)N1CCN2C(=O)c3ccccc3C12c1ccc(Cl)cc1 (stereo unspecified) | 0.7% | 2 µM |  |
| Cc1ccc(C23c4ccccc4C(=O)N2CCN3C(=O)c2ccc(C(F)(F)F)cc2)cc1 (stereo unspecified) |  | > 10 µM |  |
| Cc1ccc(C(=O)N2CCN3C(=O)c4ccccc4C23c2ccc(F)cc2)cc1 (stereo unspecified) |  | > 10 µM |  |
| Cc1ccc(C23c4ccccc4C(=O)N2CCN3C(=O)c2ccc(SC(F)(F)F)cc2)cc1 (stereo unspecified) | 4.1% | 4.1 µM |  |
| O=C(c1ccc(OC(F)(F)F)cc1)N1CCN2C(=O)c3ccccc3C12c1ccccc1 (stereo unspecified) | 0.2% | 4.47 µM |  |
| O=C(c1ccc(F)c(F)c1)N1CCN2C(=O)c3ccccc3C12c1ccc(F)cc1 (stereo unspecified) |  | > 10 µM |  |
| O=C(c1ccc(OC(F)(F)F)cc1)N1CCN2C(=O)c3ccccc3C12c1ccc(Cl)cc1 (stereo unspecified) | -5.3% | 2.3 µM |  |
| O=C(c1cccc(C(F)(F)F)c1)N1CCN2C(=O)c3ccccc3C12c1ccccc1 (stereo unspecified) | -0.7% | 3.02 µM |  |
| O=C(c1ccc(OC(F)(F)F)cc1)N1CCN2C(=O)c3ccccc3C12c1ccc(F)cc1 (stereo unspecified) |  | > 10 µM |  |
| O=C(c1cc(Cl)cc(Cl)c1)N1CCN2C(=O)c3ccccc3C12c1ccccc1 (stereo unspecified) | 0% | 5.75 µM |  |
| O=C(c1cc(F)cc(F)c1)N1CCN2C(=O)c3ccccc3C12c1ccc(Cl)cc1 (stereo unspecified) | 2.8% | 1 µM |  |
| O=C(c1ccc(F)cc1)N1CCN2C(=O)c3ccccc3C12c1ccccc1 (stereo unspecified) | 41% | 3.49 µM | IC50 [3]: > 30 µM; IC50 [4]: 5.67 µM; IC50 [5]: > 30 µM; IC50 [6]: > 30 µM; IC50 [7]: > 30 µM |
| O=C(c1cc(F)cc(F)c1)N1CCN2C(=O)c3ccccc3C12c1ccc(F)cc1 (stereo unspecified) |  | > 10 µM |  |
| Cc1ccc(C23c4ccccc4C(=O)N2CCN3C(=O)c2cccc(C(F)(F)F)c2)cc1 (stereo unspecified) |  | > 10 µM |  |
| O=C(c1ccc(SC(F)(F)F)cc1)N1CCN2C(=O)c3ccccc3C12c1ccc(Cl)cc1 (stereo unspecified) | -9.2% | 3 µM |  |
| O=C(c1cc(F)cc(F)c1)N1CCN2C(=O)c3ccccc3C12c1ccccc1 (stereo unspecified) | -2.2% | 3.8 µM |  |
| Cc1ccc(C(=O)N2CCN3C(=O)c4ccccc4C23c2ccc(Cl)cc2)cc1 (stereo unspecified) | 0.1% | 2.6 µM |  |
| O=C(c1ccc(F)c(F)c1)N1CCN2C(=O)c3ccccc3C12c1ccc(Cl)cc1 (racemic) | 0.1% |  | IC50 [3]: > 30 µM; IC50 [5]: > 30 µM; IC50 [6]: > 30 µM; IC50 [7]: > 30 µM |
| Cc1ccc(C23c4ccccc4C(=O)N2CCN3C(=O)c2ccc(OC(F)(F)F)cc2)cc1 (stereo unspecified) | -0.2% | 3.5 µM |  |
| O=C(c1cccc(C(F)(F)F)c1)N1CCN2C(=O)c3ccccc3C12c1ccc(F)cc1 (stereo unspecified) | -2.4% | 2.1 µM |  |
| O=C(c1ccc(SC(F)(F)F)cc1)N1CCN2C(=O)c3ccccc3C12c1ccccc1 (stereo unspecified) | 0.5% | 1.38 µM |  |
| Cc1ccc(C23c4ccccc4C(=O)N2CCN3C(=O)c2cc(F)cc(F)c2)cc1 (stereo unspecified) | -1.1% | 2.3 µM |  |
| Cc1ccc(C23c4ccccc4C(=O)N2CCN3C(=O)c2ccc(F)c(F)c2)cc1 (stereo unspecified) | -6.8% | 2.6 µM |  |
| O=C(c1ccc(C(F)(F)F)cc1)N1CCN2C(=O)c3ccccc3C12c1ccc(F)cc1 (stereo unspecified) |  | > 10 µM |  |
| O=C(c1ccc(C(F)(F)F)cc1)N1CCN2C(=O)c3ccccc3C12c1ccccc1 (stereo unspecified) | -2.4% | 1.95 µM |  |
| Cc1ccc(C(=O)N2CCN3C(=O)c4ccccc4C23c2ccc(C)cc2)cc1 (stereo unspecified) |  | > 10 µM |  |
| O=C(c1ccc(SC(F)(F)F)cc1)N1CCN2C(=O)c3ccccc3C12c1ccc(F)cc1 (stereo unspecified) | -0.2% | 1.3 µM |  |
| O=C(c1cccc(C(F)(F)F)c1)N1CCN2C(=O)c3ccccc3C12c1ccc(Cl)cc1 (stereo unspecified) | -7.2% | 4.9 µM |  |
